From ChEMBL document CHEMBL5260845, “Flavone-based arylamides as potential anticancers: Design, synthesis and in vitro cell-based/cell-free evaluations” (2020)
The source made the active and inactive calls.

Tests used:
UO-31 = assay: Antiproliferative activity against human UO-31 cells assessed as inhibition of cell growth at 10 uM by SRB assay relative to control; format: functional
NCI-H522 = assay: Antiproliferative activity against human NCI-H522 cells assessed as cell growth inhibition at 10 uM by SRB assay; format: functional, cell-based
HL-60 = assay: Antiproliferative activity against human HL-60 cells assessed as cell growth inhibition at 10 uM by SRB assay; format: functional, cell-based
Hs-578T [1] = assay: Antiproliferative activity against human Hs-578T cells assessed as inhibition of cell growth at 10 uM by SRB assay; format: functional, cell-based
EKVX = assay: Antiproliferative activity against human EKVX cells assessed as cell growth inhibition at 10 uM by SRB assay; format: functional
CCRF-CEM = assay: Antiproliferative activity against human CCRF-CEM cells assessed as cell growth inhibition at 10 uM by SRB assay; format: functional, cell-based
NCI-H23 = assay: Antiproliferative activity against human NCI-H23 cells assessed as cell growth inhibition at 10 uM by SRB assay; format: functional
PC-3 = assay: Antiproliferative activity against human PC-3 cells assessed as inhibition of cell growth at 10 uM by SRB assay; format: functional, cell-based
SR = assay: Antiproliferative activity against human SR cells assessed as cell growth inhibition at 10 uM by SRB assay; format: functional, cell-based
HOP-92 = assay: Antiproliferative activity against human HOP-92 cells assessed as cell growth inhibition at 10 uM by SRB assay; format: functional, cell-based
DU-145 = assay: Antiproliferative activity against human DU-145 cells assessed as inhibition of cell growth at 10 uM by SRB assay relative to control; format: functional
SF-295 = assay: Antiproliferative activity against human SF-295 cells assessed as cell growth inhibition at 10 uM by SRB assay; format: functional, cell-based
MOLT-4 = assay: Antiproliferative activity against human MOLT-4 cells assessed as cell growth inhibition at 10 uM by SRB assay; format: functional, cell-based
RPMI-8226 [2] = assay: Antiproliferative activity against human RPMI-8226 cells assessed as cell growth inhibition at 10 uM by SRB assay; format: functional, cell-based
K562 = assay: Antiproliferative activity against human K562 cells assessed as cell growth inhibition at 10 uM by SRB assay; format: functional, cell-based
NCI-H226 = assay: Antiproliferative activity against human NCI-H226 cells assessed as cell growth inhibition at 10 uM by SRB assay; format: functional
BT-549 = assay: Antiproliferative activity against triple negative human BT-549 cells assessed as inhibition of cell growth at 10 uM by SRB assay relative to control; format: functional
IGROV-1 = assay: Antiproliferative activity against human IGROV-1 cells assessed as cell growth inhibition at 10 uM by SRB assay relative to control; format: functional
OVCAR-4 = assay: Antiproliferative activity against human OVCAR-4 cells assessed as cell growth inhibition at 10 uM by SRB assay relative to control; format: functional
Malme-3M = assay: Antiproliferative activity against human Malme-3M cells assessed as cell growth inhibition at 10 uM by SRB assay relative to control; format: functional
UACC-62 = assay: Antiproliferative activity against human UACC-62 cells assessed as cell growth inhibition at 10 uM by SRB assay relative to control; format: functional
OVCAR-8 = assay: Antiproliferative activity against human OVCAR-8 cells assessed as cell growth inhibition at 10 uM by SRB assay relative to control; format: functional
SK-MEL-2 = assay: Antiproliferative activity against human SK-MEL-2 cells assessed as cell growth inhibition at 10 uM by SRB assay relative to control; format: functional; conditions: Homo sapiens, SK-MEL-2, dose 10 µM
SF-539 = assay: Antiproliferative activity against human SF-539 cells assessed as cell growth inhibition at 10 uM by SRB assay; format: functional, cell-based
SNB-75 = assay: Antiproliferative activity against human SNB-75 cells assessed as cell growth inhibition at 10 uM by SRB assay; format: functional, cell-based
SF-268 = assay: Antiproliferative activity against human SF-268 cells assessed as cell growth inhibition at 10 uM by SRB assay; format: functional, cell-based
RPMI-8226 [3] = assay: Antiproliferative activity against human RPMI-8226 cells assessed as cell growth inhibition at 10 uM by SRB assay relative to control; format: functional
U-251 = assay: Antiproliferative activity against human U-251 cells assessed as cell growth inhibition at 10 uM by SRB assay; format: functional, cell-based
SNB-19 [4] = assay: Antiproliferative activity against human SNB-19 cells assessed as cell growth inhibition at 10 uM by SRB assay; format: functional, cell-based
COLO 205 = assay: Antiproliferative activity against human COLO 205 cells assessed as cell growth inhibition at 10 uM by SRB assay; format: functional, cell-based
NCI-H460 = assay: Antiproliferative activity against human NCI-H460 cells assessed as cell growth inhibition at 10 uM by SRB assay relative to control; format: functional
HCT-15 = assay: Antiproliferative activity against human HCT-15 cells assessed as cell growth inhibition at 10 uM by SRB assay; format: functional, cell-based
HCC 2998 = assay: Antiproliferative activity against human HCC 2998 cells assessed as cell growth inhibition at 10 uM by SRB assay; format: functional, cell-based
786-0 = assay: Antiproliferative activity against human 786-0 cells assessed as inhibition of cell growth at 10 uM by SRB assay relative to control; format: functional
Hs-578T [5] = assay: Antiproliferative activity against human Hs-578T cells assessed as inhibition of cell growth at 10 uM by SRB assay relative to control; format: functional
[6] = Antiproliferative activity against human brain cancer cells assessed as cell growth inhibition at 10 uM by SRB assay relative to control; format: functional
ACHN = assay: Antiproliferative activity against human ACHN cells assessed as inhibition of cell growth at 10 uM by SRB assay relative to control; format: functional; conditions: pooled result: one value given for 2 cell lines, strains, targets or settings
KM12 = assay: Antiproliferative activity against human KM12 cells assessed as cell growth inhibition at 10 uM by SRB assay; format: functional, cell-based
SW-620 = assay: Antiproliferative activity against human SW620 cells assessed as cell growth inhibition at 10 uM by SRB assay; format: functional, cell-based
SN12C = assay: Antiproliferative activity against human SN12C cells assessed as inhibition of cell growth at 10 uM by SRB assay relative to control; format: functional
SNB-19 [7] = assay: Antiproliferative activity against temozolomide resistant human SNB-19 cells assessed as cell growth inhibition at 10 uM by SRB assay; format: functional, cell-based
Renal cancer cell line = assay: Antiproliferative activity against human renal cancer cells assessed as cell growth inhibition at 10 uM by SRB assay relative to control; format: functional
Breast carcinoma cell = assay: Antiproliferative activity against human breast cancer cells assessed as cell growth inhibition at 10 uM by SRB assay relative to control; format: functional; conditions: pooled result: one value given for 3 cell lines, strains, targets or settings
RXF 393 = assay: Antiproliferative activity against human RXF 393 cells assessed as inhibition of cell growth at 10 uM by SRB assay relative to control; format: functional
HT-29 = assay: Antiproliferative activity against human HT-29 cells assessed as cell growth inhibition at 10 uM by SRB assay; format: functional, cell-based
Lung cancer cell line = assay: Antiproliferative activity against human lung cancer cells assessed as cell growth inhibition at 10 uM by SRB assay relative to control; format: functional
HCT-116 = assay: Antiproliferative activity against human HCT-116 cells assessed as cell growth inhibition at 10 uM by SRB assay; format: functional, cell-based

COc1cc2oc(-c3ccc(NC(=O)c4ccccc4Br)cc3)cc(=O)c2c(OC)c1OC
active: inhibition (UO-31) | inhibition (NCI-H522) | inhibition (HL-60) | inhibition (Hs-578T [1]) | inhibition (CCRF-CEM) | inhibition (PC-3) | inhibition (SR) | inhibition (HOP-92) | inhibition (SF-295) | inhibition (MOLT-4) | inhibition (RPMI-8226 [2]) | inhibition (K562)
< 50%: inhibition at 10 µM (EKVX) | inhibition at 10 µM (NCI-H23) | inhibition at 10 µM (NCI-H226)
29.6%: inhibition at 10 µM (DU-145)

COc1cc2oc(-c3cccc(NC(=O)c4ccc([N+](=O)[O-])cc4)c3)cc(=O)c2c(OC)c1OC
< 50%: inhibition at 10 µM (EKVX) | inhibition at 10 µM (NCI-H23) | inhibition at 10 µM (NCI-H226)
52.1%: inhibition at 10 µM (UACC-62)
≤ 46%: inhibition at 10 µM (SK-MEL-2)
70.2%: inhibition at 10 µM (Malme-3M)
77%: inhibition at 10 µM (BT-549)
57.3%: inhibition at 10 µM (IGROV-1) | inhibition at 10 µM (OVCAR-4) | inhibition at 10 µM (OVCAR-8)
active: inhibition (UO-31) | inhibition (NCI-H522) | inhibition (HL-60) | inhibition (Hs-578T [1]) | inhibition (CCRF-CEM) | inhibition (SR) | inhibition (HOP-92) | inhibition (SF-295) | inhibition (MOLT-4) | inhibition (RPMI-8226 [2]) | inhibition (K562)

COc1cc2oc(-c3cccc(NC(=O)c4cccc(Br)c4)c3)cc(=O)c2c(O)c1OC
inactive: inhibition (SF-539) | inhibition (SNB-75) | inhibition (SF-268) | inhibition (SF-295) | inhibition (U-251) | inhibition (SNB-19 [4])
82.6%: inhibition at 10 µM (RPMI-8226 [3])

COc1cc2oc(-c3cccc(C(=O)Nc4ccc(Cl)cc4)c3)cc(=O)c2c(O)c1OC
53%: inhibition at 10 µM (786-0) | inhibition at 10 µM (ACHN) | inhibition at 10 µM (SN12C) | inhibition at 10 µM (RXF 393)
130%: inhibition at 10 µM (OVCAR-4)
82.6%: inhibition at 10 µM (RPMI-8226 [3])
93.3%: inhibition at 10 µM (Hs-578T [5])
active: inhibition (COLO 205) | inhibition (HCT-15) | inhibition (HCC 2998) | inhibition (KM12) | inhibition (SW-620) | inhibition (SNB-19 [7]) | inhibition (HT-29) | inhibition (HCT-116)
> 50%: inhibition at 10 µM [6] | inhibition at 10 µM (Renal cancer cell line) | inhibition at 10 µM (Breast carcinoma cell) | inhibition at 10 µM (Lung cancer cell line)
79.5%: inhibition at 10 µM (NCI-H460)
83.7%: inhibition at 10 µM (OVCAR-8)
57.3%: inhibition at 10 µM (UACC-62)

COc1cc2oc(-c3ccc(NC(=O)c4cccc(Br)c4)cc3)cc(=O)c2c(O)c1OC
82.6%: inhibition at 10 µM (RPMI-8226 [3])
inactive: inhibition (SF-539) | inhibition (SNB-75) | inhibition (SF-268) | inhibition (SF-295) | inhibition (U-251) | inhibition (SNB-19 [4])
